This note sets out measurements from article PMC7558282, “The Anticancer Activity for the Bumetanide-Based Analogs via Targeting the Tumor-Associated Membrane-Bound Human Carbonic Anhydrase-IX Enzyme” (Pharmaceuticals, 2020).

The assay deals with A-498 cells. In words: cell cycle analysis (PI, flow cytometry) in A-498. Format: cell-based, human. The settings on record: 6 µM, 48 h. On the procedure: The efficient antiproliferative activity of compound 9c on the kidney carcinoma A-498 cell line (Table 2) prompted a further investigation of its mechanistic growth inhibitory action. Thus, the impact of bumetanide analog 9c at 6 µM for 48 h on cell cycle distribution and induction of apoptosis in A-498 cells was next explored. […] Analysis of apoptosis was performed to determine the mode of cell death induced by 9c in A-498 cells. Compound 9c induced both early and late apoptosis in A-498 cells at 6 µM when compared to the untreated control cells (p < 0.01 and p < 0.001, respectively) (Figure 5A). […]
Figure 4 (A) Effect of compound 9c on the cell cycle and apoptosis in kidney carcinoma cell line A-498. […] Cells were then fixed, stained with propidium iodide (PI), and analyzed by flow cytometry. […] (B) Quantitative analysis of 4N (G2/M), 2N (G0G1), > 2N (S), and < 2N (sub-G1). DNA content was determined with CellQuest software. […]
A-498 Cells were seeded at a density of 1 × 10^5 cells/well in 24-well plates and treated with compound 9c (6 µM) for 48 h. […] The DNA content of cells (10,000 cells/experimental group) was analyzed by flow cytometer at 488 nm using a FACSCalibur flow cytometer (BD Biosciences, San Jose, CA, USA) and all data were recorded and analyzed using the CellQuest Software (Becton-Dickinson Biosciences, San Jose, CA, USA). […]
(In general: Flow cytometry measures light scatter and fluorescence of single cells or particles in a stream.)

As to `CCCCNc1cc(-c2n[nH]c(=S)n2-c2ccc(Br)cc2)cc(S(N)(=O)=O)c1Oc1ccccc1` [Compound 9c], the “cells in the sub-G1 phase” value (control 1.3%) was found to be 25.5%. The “cell population at the G2/M stage” value (untreated control 10.8%) was found to be 48.6%.
